According to ChEMBL document CHEMBL1909046, “DrugMatrix in vitro pharmacology data”:

Legend:
[1] = target: Cytochrome P450 3A4 (Homo sapiens, UniProt P08684); settings: bti-tn-5b1-4; note: in other assays of this panel Not Active means under 50% inhibition at 10 µM
[2] = target: T1, 5-hydroxytryptamine receptor 2C (Homo sapiens, UniProt P28335); assay: DRUGMATRIX: Serotonin (5-Hydroxytryptamine) 5-HT2C radioligand binding (ligand: [3H] Mesulergine); type: cell membranes, CHO-K1, Membrane; settings: cho-k1; Not Active = under 50% inhibition at 10 µM
T1 sequence (P28335 whole entry): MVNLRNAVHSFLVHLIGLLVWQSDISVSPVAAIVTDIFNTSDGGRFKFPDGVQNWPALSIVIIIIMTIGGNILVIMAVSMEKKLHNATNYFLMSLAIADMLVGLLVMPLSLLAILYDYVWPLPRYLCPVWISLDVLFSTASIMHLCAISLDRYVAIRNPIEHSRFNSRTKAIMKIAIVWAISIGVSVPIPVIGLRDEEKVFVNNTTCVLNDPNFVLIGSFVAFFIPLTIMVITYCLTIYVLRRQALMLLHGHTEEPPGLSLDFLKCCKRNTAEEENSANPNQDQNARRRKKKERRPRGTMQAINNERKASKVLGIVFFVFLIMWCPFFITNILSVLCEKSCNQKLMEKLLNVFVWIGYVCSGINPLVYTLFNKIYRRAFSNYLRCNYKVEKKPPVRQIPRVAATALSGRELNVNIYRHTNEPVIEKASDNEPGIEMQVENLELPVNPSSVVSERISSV

[3] = target: 5-hydroxytryptamine receptor 2B (Homo sapiens, UniProt P41595); type: cell membranes, CHO-K1, Membrane; note: in other assays of this panel Not Active means under 50% inhibition at 10 µM
5-hydroxytryptamine receptor 2B, sequence (P41595 whole entry): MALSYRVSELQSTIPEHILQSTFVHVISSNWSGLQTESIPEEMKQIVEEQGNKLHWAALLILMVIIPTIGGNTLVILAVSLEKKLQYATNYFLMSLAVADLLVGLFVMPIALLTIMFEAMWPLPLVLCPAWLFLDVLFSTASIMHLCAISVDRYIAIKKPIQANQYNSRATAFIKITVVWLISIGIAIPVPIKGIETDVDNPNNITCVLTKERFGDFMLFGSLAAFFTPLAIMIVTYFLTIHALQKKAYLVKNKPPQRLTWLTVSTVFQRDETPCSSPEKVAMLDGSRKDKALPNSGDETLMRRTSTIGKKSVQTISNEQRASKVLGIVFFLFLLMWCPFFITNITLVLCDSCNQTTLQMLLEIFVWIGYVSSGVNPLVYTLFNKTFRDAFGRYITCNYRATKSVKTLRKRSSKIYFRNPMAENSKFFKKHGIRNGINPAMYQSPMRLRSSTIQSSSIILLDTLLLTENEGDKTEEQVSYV

[4] = target: T2, Androgen receptor (Rattus norvegicus, UniProt P15207); note: in other assays of this panel Not Active means under 50% inhibition at 10 µM
T2 sequence (P15207 whole entry): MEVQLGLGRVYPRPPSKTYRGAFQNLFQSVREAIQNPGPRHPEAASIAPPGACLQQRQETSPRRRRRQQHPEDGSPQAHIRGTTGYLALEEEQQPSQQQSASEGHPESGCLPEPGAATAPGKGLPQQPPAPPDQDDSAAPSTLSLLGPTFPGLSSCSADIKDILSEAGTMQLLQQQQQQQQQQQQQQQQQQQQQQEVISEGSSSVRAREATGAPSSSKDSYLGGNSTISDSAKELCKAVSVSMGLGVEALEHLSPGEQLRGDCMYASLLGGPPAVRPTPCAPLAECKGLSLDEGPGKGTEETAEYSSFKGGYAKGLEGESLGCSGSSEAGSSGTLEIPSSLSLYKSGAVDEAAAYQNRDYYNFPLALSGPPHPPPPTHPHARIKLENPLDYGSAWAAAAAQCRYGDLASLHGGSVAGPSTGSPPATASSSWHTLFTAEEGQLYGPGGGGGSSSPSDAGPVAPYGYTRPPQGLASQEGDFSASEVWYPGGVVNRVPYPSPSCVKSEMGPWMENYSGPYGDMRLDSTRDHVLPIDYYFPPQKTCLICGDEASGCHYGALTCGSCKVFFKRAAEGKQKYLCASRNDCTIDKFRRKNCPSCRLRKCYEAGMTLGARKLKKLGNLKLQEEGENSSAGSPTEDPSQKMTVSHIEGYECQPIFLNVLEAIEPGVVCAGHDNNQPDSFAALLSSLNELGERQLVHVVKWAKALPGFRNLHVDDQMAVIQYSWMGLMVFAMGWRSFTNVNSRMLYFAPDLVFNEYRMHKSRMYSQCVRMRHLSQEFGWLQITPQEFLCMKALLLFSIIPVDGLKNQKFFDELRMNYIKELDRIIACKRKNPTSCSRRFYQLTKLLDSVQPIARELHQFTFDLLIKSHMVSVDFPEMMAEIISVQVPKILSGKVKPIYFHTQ

Cytochrome P450 3A4, sequence (P08684 whole entry): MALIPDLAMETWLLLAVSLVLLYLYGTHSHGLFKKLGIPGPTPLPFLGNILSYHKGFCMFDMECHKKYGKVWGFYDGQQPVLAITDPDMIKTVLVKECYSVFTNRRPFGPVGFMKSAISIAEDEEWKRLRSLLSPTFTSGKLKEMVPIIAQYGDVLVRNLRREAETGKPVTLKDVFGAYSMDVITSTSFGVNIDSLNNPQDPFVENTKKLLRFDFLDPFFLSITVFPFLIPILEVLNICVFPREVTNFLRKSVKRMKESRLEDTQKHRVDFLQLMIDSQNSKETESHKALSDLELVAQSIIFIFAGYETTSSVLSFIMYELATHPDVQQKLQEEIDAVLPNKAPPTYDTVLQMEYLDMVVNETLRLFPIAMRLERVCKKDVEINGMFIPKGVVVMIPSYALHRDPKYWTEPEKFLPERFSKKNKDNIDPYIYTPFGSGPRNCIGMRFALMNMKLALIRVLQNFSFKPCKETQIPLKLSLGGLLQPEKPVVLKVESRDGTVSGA

Row | Compound | IC50 [1] | Ki [1] | IC50 [2] | IC50 ([3]; cho-k1) | IC50 [4] | Ki [4] | Ki [2] | Ki ([3]; cho-k1) | IC50 ([3]; read-out: IC50) [nM] | Ki ([3]; read-out: Ki) [nM]
1 | O=C(c1ccccc1)c1ccc2n1CCC2C(=O)O (stereo not drawn) [KETOROLAC] | Not Active | Not Active | Not Active | Not Active |  |  |  |  |  | 
2 | Oc1ccc(/C=C/c2cc(O)cc(O)c2)cc1 [RESVERATROL] |  |  | Not Active | Not Active | Not Active |  |  |  |  | 
3 | Cc1ccnc(NS(=O)(=O)c2ccc(N)cc2)n1 [SULFAMERAZINE] | Not Active | Not Active | Not Active | Not Active |  |  |  |  |  | 
4 | CCN1CCCC1CNC(=O)c1cc(S(N)(=O)=O)ccc1OC (stereo not drawn) [SULPIRIDE] | Not Active | Not Active | Not Active | Not Active | Not Active |  |  |  |  | 
5 | O=C1CC[C@@]2(O)[C@H]3Cc4ccc(O)c5c4[C@@]2(CCN3CC2CC2)[C@H]1O5 [NALTREXONE] | Not Active | Not Active | Not Active | Not Active |  |  |  |  |  | 
6 | CC[C@@]1(O)C(=O)OCc2c1cc1n(c2=O)Cc2cc3c(CN(C)C)c(O)ccc3nc2-1 [TOPOTECAN] |  |  | Not Active | Not Active |  |  |  |  |  | 
7 | CC1(C)[C@H](C(=O)O)N2C(=O)C[C@H]2S1(=O)=O [SULBACTAM] | Not Active | Not Active | Not Active | Not Active |  |  |  |  |  | 
8 | CCN(CC)N=O [N-NITROSODIETHYLAMINE] | Not Active | Not Active | Not Active | Not Active |  |  |  |  |  | 
9 | C[C@]12CCC(=O)C[C@@H]1CC[C@@H]1[C@@H]2CC[C@]2(C)[C@@H](O)CC[C@@H]12 [STANOLONE] | Not Active | Not Active | Not Active | Not Active |  |  |  |  |  | 
10 | Cc1cccc(C)c1NC(=O)C(C)N (stereo not drawn) [TOCAINIDE] | Not Active | Not Active | Not Active | Not Active |  |  |  |  |  | 
11 | LEAD(IV) ACETATE | Not Active | Not Active | Not Active | Not Active | Not Active | Not Active | Not Active | Not Active |  | 
12 | CC#C[C@]1(O)CC[C@H]2[C@@H]3CCC4=CC(=O)CCC4=C3[C@@H](c3ccc(N(C)C)cc3)C[C@@]21C [MIFEPRISTONE] |  |  | Not Active | Not Active |  |  |  |  |  | 
13 | CS(=O)(=O)c1ccc(C2=C(c3ccccc3)C(=O)OC2)cc1 [ROFECOXIB] | Not Active | Not Active | Not Active | Not Active |  |  |  |  |  | 
14 | COC(=O)Nc1nc2ccc(C(=O)c3ccccc3)cc2[nH]1 [MEBENDAZOLE] | Not Active | Not Active | Not Active | Not Active | Not Active |  |  |  |  | 
15 | CC(O)C(=O)O (stereo not drawn) [LACTIC ACID] | Not Active | Not Active | Not Active | Not Active |  |  |  |  |  | 
16 | CC(N)C12CC3CC(CC(C3)C1)C2 (stereo not drawn) [RIMANTADINE] | Not Active | Not Active | Not Active | Not Active |  |  |  |  |  | 
17 | CN1C[C@H](CNC(=O)OCc2ccccc2)C[C@@H]2c3cccc4c3c(cn4C)C[C@H]21 [METERGOLINE] | Not Active | Not Active |  |  |  |  |  |  |  | 
18 | CO[C@@H]1[C@@H](OC)[C@H](C)[C@@](O)(CC(=O)O)O[C@H]1[C@H](C)[C@H]1O[C@@]2(CC[C@@](C)([C@H]3CC[C@@](C)([C@@H]4O[C@@H]([C@H]5O[C@](C)(O)[C@H](C)C[C@@H]5C)C[C@@H]4O[C@@H]4C[C@H](OC)[C@@H](OC)[C@H](C)O4)O3)O2)C[C@H](O)[C@H]1C.N [MADURAMICIN] | Not Active | Not Active | Not Active | Not Active |  |  |  |  |  | 
19 | CC(C)(C)NC[C@H](O)COc1cccc2c1CCCC2=O [LEVOBUNOLOL] | Not Active | Not Active | Not Active | Not Active |  |  |  |  |  | 

Row | Compound | IC50 [1] | Ki [1] | IC50 [2] | IC50 ([3]; cho-k1) | IC50 [4] | Ki [4] | Ki [2] | Ki ([3]; cho-k1) | IC50 ([3]; read-out: IC50) [nM] | Ki ([3]; read-out: Ki) [nM]
20 | Cc1[nH]c(=O)c(C#N)cc1-c1ccncc1 [MILRINONE] | Not Active | Not Active | Not Active | Not Active |  |  |  |  |  | 
21 | C1CCN2C[C@@H]3C[C@@H](CN4CCCC[C@@H]34)[C@H]2C1 [SPARTEINE] |  |  | Not Active | Not Active |  |  |  |  |  | 
22 | Cc1cnc(NC(=O)C2=C(O)c3ccccc3S(=O)(=O)N2C)s1 [MELOXICAM] | Not Active | Not Active | Not Active | Not Active |  |  |  |  |  | 
23 | CO[C@@]12[C@H](COC(N)=O)C3=C(C(=O)C(C)=C(N)C3=O)N1C[C@@H]1N[C@@H]12 [MITOMYCIN] | Not Active | Not Active | Not Active | Not Active |  |  |  |  |  | 
24 | CC(Cl)(Cl)Cl [TRICHLOROETHANE] | Not Active | Not Active | Not Active | Not Active |  |  |  |  |  | 
25 | O=[As][O-].[Na+] [SODIUM ARSENITE] | Not Active | Not Active | Not Active | Not Active | Not Active |  |  |  |  | 
26 | Cc1ccc(Cl)c(Nc2ccccc2C(=O)O)c1Cl [MECLOFENAMIC ACID] | Not Active | Not Active | Not Active | Not Active |  |  |  |  |  | 
27 | Cc1ccc(S(=O)(=O)NC(=O)NN2CCCCCC2)cc1 [TOLAZAMIDE] |  |  | Not Active | Not Active |  |  |  |  |  | 
28 | O=C(O)c1cc(/N=N/c2ccc(S(=O)(=O)Nc3ccccn3)cc2)ccc1O [SULFASALAZINE] | Not Active | Not Active | Not Active | Not Active |  |  |  |  |  | 
29 | CC(=O)O[C@]1(C(C)=O)CC[C@H]2[C@@H]3C[C@H](C)C4=CC(=O)CC[C@]4(C)[C@H]3CC[C@@]21C [MEDROXYPROGESTERONE ACETATE] | Not Active | Not Active | Not Active | Not Active |  |  |  |  |  | 
30 | CC[C@H](C)C(=O)O[C@H]1CCC=C2C=C[C@H](C)[C@H](CC[C@@H]3C[C@@H](O)CC(=O)O3)[C@H]21 [MEVASTATIN] | Not Active | Not Active | Not Active | Not Active | Not Active |  |  |  |  | 
31 | Cc1nnc(NS(=O)(=O)c2ccc(N)cc2)s1 [SULFAMETHIZOLE] | Not Active | Not Active | Not Active | Not Active | Not Active |  |  |  |  | 
32 | CCC(C)(C)C(=O)O[C@H]1C[C@@H](C)C=C2C=C[C@H](C)[C@H](CC[C@@H]3C[C@@H](O)CC(=O)O3)[C@H]21 [SIMVASTATIN] |  |  | Not Active | Not Active |  |  |  |  |  | 
33 | CN1C(=O)OC(C)(C)C1=O [TRIMETHADIONE] | Not Active | Not Active | Not Active | Not Active |  |  |  |  |  | 
34 | OC[C@@H](O)[C@@H](O)[C@H](O)[C@H](O)CO [MANNITOL] | Not Active | Not Active | Not Active | Not Active |  |  |  |  |  | 
35 | Cc1cn([C@H]2C=C[C@@H](CO)O2)c(=O)[nH]c1=O [STAVUDINE] | Not Active | Not Active | Not Active | Not Active |  |  |  |  |  | 
36 | C[N+]1(C)[C@@H]2C[C@@H](OC(=O)[C@H](CO)c3ccccc3)C[C@H]1[C@@H]1O[C@@H]12.[Br-] [METHSCOPOLAMINE BROMIDE] | Not Active | Not Active | Not Active | Not Active |  |  |  |  |  | 
37 | CC1=C(/C=C/C(C)=C/C=C/C(C)=C/C(=O)O)C(C)(C)CCC1 [TRETINOIN] | Not Active | Not Active | Not Active |  |  |  |  |  | 358 | 228
38 | CN(C)CCC=C1c2ccccc2COc2ccccc21 [DOXEPIN] | Not Active | Not Active |  |  | Not Active |  |  |  |  | 
